Data from PubChem BioAssay (NCI).
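Interpolation was linear, between the two tested concentrations surrounding the appropriate level; five concentrations were tested over 48 hours in 96-well plates. At the GI50, growth is halved. The concentration for full growth arrest is given as TGI.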

Key:
Assay in all cases: inhibition of tumour cell growth, NCI panel, 48 h
NCI-H460 lung = test system: NCI-H460 lung
SNB-75 CNS = test system: SNB-75 CNS
PC-3 prostate = test system: PC-3 prostate
UACC-257 melanoma = test system: UACC-257 melanoma
BT-549 breast = test system: BT-549 breast
UO-31 renal = test system: UO-31 renal
MALME-3M melanoma = test system: MALME-3M melanoma
OVCAR-3 ovarian = test system: OVCAR-3 ovarian
NCI/ADR-RES ovarian = test system: NCI/ADR-RES ovarian
SN12C renal = test system: SN12C renal
SK-MEL-5 melanoma = test system: SK-MEL-5 melanoma
IGROV1 ovarian = test system: IGROV1 ovarian
A549 NSCLC = test system: A549 NSCLC
NCI-H226 lung = test system: NCI-H226 lung
MDA-MB-231 breast = test system: MDA-MB-231 breast
SF-268 CNS = test system: SF-268 CNS
KM12 colon = test system: KM12 colon
CCRF-CEM leukemia = test system: CCRF-CEM leukemia
SK-MEL-2 melanoma = test system: SK-MEL-2 melanoma
HL-60(TB) leukemia = test system: HL-60(TB) leukemia
OVCAR-5 ovarian = test system: OVCAR-5 ovarian
NCI-H23 lung = test system: NCI-H23 lung
SR leukemia = test system: SR leukemia
U251 CNS = test system: U251 CNS
M14 melanoma = test system: M14 melanoma
LOX IMVI melanoma = test system: LOX IMVI melanoma
SNB-19 CNS = test system: SNB-19 CNS
SF-295 CNS = test system: SF-295 CNS
HT29 colon = test system: HT29 colon
T-47D breast = test system: T-47D breast
HS 578T breast = test system: HS 578T breast
ACHN renal = test system: ACHN renal
HCC-2998 colon = test system: HCC-2998 colon
NCI-H522 lung = test system: NCI-H522 lung
DU-145 prostate = test system: DU-145 prostate
HCT-116 colon = test system: HCT-116 colon
HCT-15 colon = test system: HCT-15 colon
MDA-MB-435 = test system: MDA-MB-435
MOLT-4 leukemia = test system: MOLT-4 leukemia
OVCAR-8 ovarian = test system: OVCAR-8 ovarian
SF-539 CNS = test system: SF-539 CNS
SW-620 colon = test system: SW-620 colon
RXF 393 renal = test system: RXF 393 renal
SK-OV-3 ovarian = test system: SK-OV-3 ovarian
UACC-62 melanoma = test system: UACC-62 melanoma
RPMI-8226 leukemia = test system: RPMI-8226 leukemia
SK-MEL-28 melanoma = test system: SK-MEL-28 melanoma
CAKI-1 renal = test system: CAKI-1 renal
786-0 renal = test system: 786-0 renal
COLO 205 colon = test system: COLO 205 colon
HOP-62 NSCLC = test system: HOP-62 NSCLC
OVCAR-4 ovarian = test system: OVCAR-4 ovarian
K-562 leukemia = test system: K-562 leukemia
MCF7 breast = test system: MCF7 breast

## COc1cc(Cl)cc(-c2nn(-c3cccc(NC(=O)c4cccc(C(F)(F)F)c4)c3)cc2-c2ccncc2)c1
NCI-H460 lung
  GI50: 5.17 µM
  TGI: > 100 µM
SNB-75 CNS
  GI50: 6.62 µM
  TGI: > 100 µM
PC-3 prostate
  GI50: 2.71 µM
  TGI: > 100 µM
UACC-257 melanoma
  GI50: > 100 µM
  TGI: > 100 µM
BT-549 breast
  GI50: > 100 µM
  TGI: > 100 µM
UO-31 renal
  GI50: 2.71 µM
  TGI: > 100 µM
MALME-3M melanoma
  GI50: > 100 µM
  TGI: > 100 µM
OVCAR-3 ovarian
  GI50: 7.69 µM
  TGI: > 100 µM
NCI/ADR-RES ovarian
  GI50: 5.37 µM
  TGI: > 100 µM
SN12C renal
  GI50: > 100 µM
  TGI: > 100 µM
SK-MEL-5 melanoma
  GI50: 5.43 µM
  TGI: > 100 µM
IGROV1 ovarian
  GI50: > 100 µM
  TGI: > 100 µM
A549 NSCLC
  GI50: 3.62 µM
  TGI: > 100 µM
NCI-H226 lung
  GI50: > 100 µM
  TGI: > 100 µM
MDA-MB-231 breast
  GI50: 1.38 µM
  TGI: 9.97 µM
SF-268 CNS
  GI50: > 100 µM
  TGI: > 100 µM
KM12 colon
  GI50: 4.53 µM
  TGI: > 100 µM
CCRF-CEM leukemia
  GI50: 4.38 µM
  TGI: > 100 µM
SK-MEL-2 melanoma
  GI50: 6.78 µM
  TGI: > 100 µM
HL-60(TB) leukemia
  GI50: 45.9 µM
  TGI: > 100 µM
OVCAR-5 ovarian
  GI50: > 100 µM
  TGI: > 100 µM
NCI-H23 lung
  GI50: 6.74 µM
  TGI: > 100 µM
SR leukemia
  GI50: 2.48 µM
  TGI: > 100 µM
U251 CNS
  GI50: 5.56 µM
  TGI: > 100 µM
M14 melanoma
  GI50: 6.09 µM
  TGI: > 100 µM
LOX IMVI melanoma
  GI50: 15.7 µM
  TGI: > 100 µM
SNB-19 CNS
  GI50: > 100 µM
  TGI: > 100 µM
SF-295 CNS
  GI50: 3.91 µM
  TGI: > 100 µM
HT29 colon
  GI50: 3.37 µM
  TGI: > 100 µM
T-47D breast
  GI50: 4.69 µM
  TGI: > 100 µM
HS 578T breast
  GI50: > 100 µM
  TGI: > 100 µM
ACHN renal
  GI50: 7.21 µM
  TGI: > 100 µM
HCC-2998 colon
  GI50: 6.66 µM
  TGI: > 100 µM
NCI-H522 lung
  GI50: 1.99 µM
  TGI: > 100 µM
DU-145 prostate
  GI50: > 100 µM
  TGI: > 100 µM
HCT-116 colon
  GI50: 3.17 µM
  TGI: > 100 µM
HCT-15 colon
  GI50: 3.35 µM
  TGI: > 100 µM
MDA-MB-435
  GI50: > 100 µM
  TGI: > 100 µM
MOLT-4 leukemia
  GI50: 2.78 µM
  TGI: > 100 µM
OVCAR-8 ovarian
  GI50: 6.88 µM
  TGI: > 100 µM
SF-539 CNS
  GI50: > 100 µM
  TGI: > 100 µM
SW-620 colon
  GI50: > 100 µM
  TGI: > 100 µM
RXF 393 renal
  GI50: 1.87 µM
  TGI: > 100 µM
SK-OV-3 ovarian
  GI50: > 100 µM
  TGI: > 100 µM
UACC-62 melanoma
  GI50: 8.04 µM
  TGI: > 100 µM
RPMI-8226 leukemia
  GI50: 3.13 µM
  TGI: > 100 µM
SK-MEL-28 melanoma
  GI50: > 100 µM
  TGI: > 100 µM
CAKI-1 renal
  GI50: 3.85 µM
  TGI: > 100 µM
786-0 renal
  GI50: 16.7 µM
  TGI: > 100 µM
COLO 205 colon
  GI50: 33.7 µM
  TGI: > 100 µM
HOP-62 NSCLC
  GI50: > 100 µM
  TGI: > 100 µM
OVCAR-4 ovarian
  GI50: > 100 µM
  TGI: > 100 µM
K-562 leukemia
  GI50: 4.69 µM
  TGI: > 100 µM
MCF7 breast
  GI50: 4.17 µM
  TGI: > 100 µM
